Values of other authors as cited in patent publication US6077537A (Warner-Lambert Company, priority 1998, dated 2000).

Conditions: relative to parent compound

plasma concentration of principal active metabolite: well below those of parent compound
Structure (SMILES): Cc1ccc(C(=CCN2CCCC2)c2cccc(CCC(=O)O)n2)cc1 [propionic acid analogue of acrivastine]
